SMILES strings stand for the structures.

One data set in a line: Log P by HPLC on reversed phase columns, method [a] (EEC directive 79/831 Annex V.A8). It counts as physicochemical. To be noted: log P determined according to method [a] (HPLC on reversed phase columns). An outline of the steps:
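Reversed-phase HPLC with LC-UV detection per EEC directive 79/831 Annex V.A8, acidic eluent of 0.1% formic acid in water and acetonitrile, linear gradient 10% to 95% acetonitrile. Log P derived from retention times, calibrated against straight-chain alkan-2-ones (C3–C16) by linear interpolation.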
For orientation: logP means a log measure of how a compound divides between an organic and an aqueous phase. A lower logP goes with a more hydrophilic compound. As to `FC(F)c1nnc(-c2ccc(Br)cc2)o1` [Example I-009], the logP came out at 2.89.
Compound `O=C(O)c1ccc(-c2nnc(C(F)F)o2)cn1` [Example I-032] showed a logP of 0.83.
`Fc1ccccc1C1(Nc2ccc(-c3nnc(C(F)F)o3)cc2)CC1` [Example I-025] yielded a logP of 3.57.
On to `Fc1ccc(-c2ncc(-c3nnc(C(F)F)o3)cn2)cn1` [Example I-080], for which the lipophilicity (logP) is 2.31.
For the compound `O=C(Nc1ccc(-c2nnc(C(F)F)o2)cc1)C(F)F` [Example I-012], the lipophilicity (logP) worked out at 2.01.
Compound `FC(F)c1nnc(-c2ccc(Cl)nc2)o1` [Example I-031] displayed a logP of 1.92.
In turn, `FC(F)c1nnc(-c2cnc(Cl)nc2)o1` [Example I-061] registered a logP of 1.55.
Take `C#CCNc1ncc(-c2nnc(C(F)F)o2)cn1` [Example I-063]: the logP stood at 1.59.
Regarding `CN(c1ccccc1)c1ncc(-c2nnc(C(F)F)o2)cn1` [Example I-087], the lipophilicity (logP) is 2.80.
In turn, `CC(=O)Nc1ccc(-c2nnc(C(F)F)o2)cn1` [Example I-034] displayed a logP of 1.32.
The compound `O=C(NCC1CC1)c1ccc(-c2nnc(C(F)F)o2)cn1` [Example I-046] returned a logP of 2.16.
`FC(F)c1nnc(-c2cnc(-c3cccnc3)nc2)o1` [Example I-070]: the logP was 2.03.
Consider `CSc1ccc(-c2nnc(C(F)F)o2)cc1` [Example I-002], for which the lipophilicity (logP) was 2.75.
`Fc1cccc(Nc2ncc(-c3nnc(C(F)F)o3)cn2)c1` [Example I-094] had a logP of 2.77.
In turn, `FC(F)c1nnc(-c2cnc(-c3ccsc3)nc2)o1` [Example I-072] registered a logP of 2.64. This logP and that of the compound before are within 0.2 log units of each other.
`Fc1ccc(Nc2ncc(-c3nnc(C(F)F)o3)cn2)cc1` [Example I-095] came in with a logP of 2.64.
On to `FC(F)c1nnc(-c2ccc(-c3nnc(C(F)F)o3)cc2)o1` [Example I-019], for which the log partition coefficient (logP) turned out to be 2.44.
Consider `CC(Nc1ncc(-c2nnc(C(F)F)o2)cn1)C1CC1` (stereo not shown) [Example I-073], for which the logP was determined as 2.51.
On to `CCn1nccc1Nc1ncc(-c2nnc(C(F)F)o2)cn1` [Example I-096], for which the log partition coefficient (logP) turned out to be 1.49.
`FC(F)c1nnc(-c2ccc(Cn3ccnc3)cc2)o1` [Example I-010] yielded a logP of 0.60.
In turn, `COC(=O)Nc1ccc(-c2nnc(C(F)F)o2)cn1` [Example I-038] yielded a logP of 1.66.

Still in this data set, the particulars now being: reversed phase HPLC column; log P determined according to method [a] (HPLC on reversed phase columns); read-out: logP.
In the case of `C[C@@H](Nc1ncc(-c2nnc(C(F)F)o2)cn1)c1ccc(F)cc1` [I.125a, 5-[5-(difluoromethyl)-1,3,4-oxadiazol-2-yl]-N-[(1R)-1-(4-fluorophenyl)ethyl]pyrimidin-2-amine], the chromatographic logP was determined as 2.86.
Turning to `FC(F)c1nnc(-c2cnc(-c3cncc(Cl)c3)nc2)o1` [I.103, 2-(5-chloropyridin-3-yl)-5-[5-(difluoromethyl)-1,3,4-oxadiazol-2-yl]pyrimidine], the chromatographic logP was determined as 2.59.
For the compound `FC(F)c1nnc(-c2cnc(-c3ccnc(Cl)c3)nc2)o1` [I.102, 2-(2-chloropyridin-4-yl)-5-[5-(difluoromethyl)-1,3,4-oxadiazol-2-yl]pyrimidine], the chromatographic logP was determined as 2.59.
Regarding `FC(F)c1nnc(-c2cnc(Nc3ccccc3C3CC3)nc2)o1` [I.119, N-(2-cyclopropylphenyl)-5-[5-(difluoromethyl)-1,3,4-oxadiazol-2-yl]pyrimidin-2-amine], the chromatographic logP turned out to be 3.1.
Turning to `FC(F)c1nnc(-c2cnc(Nc3ccccc3Cl)nc2)o1` [I.114, N-(2-chlorophenyl)-5-[5-(difluoromethyl)-1,3,4-oxadiazol-2-yl]pyrimidin-2-amine], the chromatographic logP turned out to be 2.92.
Take `CCCC(Nc1ncc(-c2nnc(C(F)F)o2)cn1)c1ccccc1` (racemic) [I.140, 5-[5-(difluoromethyl)-1,3,4-oxadiazol-2-yl]-N-[(1RS)-1-phenylbutyl]pyrimidin-2-amine]: the chromatographic logP amounted to 3.54.
As to `FC(F)c1nnc(-c2cnc(N3Cc4ccccc4C3)nc2)o1` [I.106, 2-{5-[5-(difluoromethyl)-1,3,4-oxadiazol-2-yl]pyrimidin-2-yl}isoindoline], the chromatographic logP came to 3.1.
On to `CC(C)(Nc1ncc(-c2nnc(C(F)F)o2)cn1)c1c(F)cccc1F` [I.168, 5-[5-(difluoromethyl)-1,3,4-oxadiazol-2-yl]-N-[2-(2,6-difluorophenyl)propan-2-yl]pyrimidin-2-amine], for which the chromatographic logP is 3.34.
As to `FC(F)c1nnc(-c2cnc(NC3(C4CCCCC4)CC3)nc2)o1` [I.126, N-(1-cyclohexylcyclopropyl)-5-[5-(difluoromethyl)-1,3,4-oxadiazol-2-yl]pyrimidin-2-amine], the chromatographic logP amounted to 3.57.

Still in this data set, the particulars now being: reversed phase HPLC column; method [a], HPLC on reversed phase columns; read-out: logP.
Turning to `FC(F)c1nnc(-c2cnc(NC3(c4ccccc4Cl)CCC3)nc2)o1` [I.174, N-[1-(2-chlorophenyl)cyclobutyl]-5-[5-(difluoromethyl)-1,3,4-oxadiazol-2-yl]pyrimidin-2-amine], the chromatographic logP was found to be 3.81.
Regarding `FC(F)c1nnc(-c2cnc(NC3(c4cccc(OC(F)(F)F)c4)CC3)nc2)o1` [I.262, 5-[5-(difluoromethyl)-1,3,4-oxadiazol-2-yl]-N-{1-[3-(trifluoromethoxy)phenyl]cyclopropyl}pyrimidin-2-amine], the chromatographic logP was determined as 3.37.
As for `O=[N+]([O-])c1cc(C2(Nc3ncc(-c4nnc(C(F)F)o4)cn3)CC2)ccc1Cl` [I.259, N-[1-(4-chloro-3-nitrophenyl)cyclopropyl]-5-[5-(difluoromethyl)-1,3,4-oxadiazol-2-yl]pyrimidin-2-amine], the chromatographic logP came out at 2.96.
For the compound `FC(F)c1nnc(-c2cnc(NC3(c4ccc(Cl)cc4)CC3)nc2)o1` [I.226, N-[1-(4-chlorophenyl)cyclopropyl]-5-[5-(difluoromethyl)-1,3,4-oxadiazol-2-yl]pyrimidin-2-amine], the chromatographic logP was determined as 3.16.
Same read-out and setting: in the case of `Cc1cccc(C)c1C1(Nc2ncc(-c3nnc(C(F)F)o3)cn2)CC1` [I.216, 5-[5-(difluoromethyl)-1,3,4-oxadiazol-2-yl]-N-[1-(2,6-dimethylphenyl)cyclopropyl]pyrimidin-2-amine] it was 3.8; in that of `FC(F)c1nnc(-c2cnc(NC3(c4ccco4)CCCC3)nc2)o1` [I.208, 5-[5-(difluoromethyl)-1,3,4-oxadiazol-2-yl]-N-[1-(2-furyl)cyclopentyl]pyrimidin-2-amine], 3.18; in that of `CCC(Nc1ncc(-c2nnc(C(F)F)o2)cn1)c1ccccc1Br` (racemic) [I.260, N-[(1RS)-1-(2-bromophenyl)propyl]-5-[5-(difluoromethyl)-1,3,4-oxadiazol-2-yl]pyrimidin-2-amine], 3.64.
As for `Fc1ccccc1C1(N(CC(F)F)c2ncc(-c3nnc(C(F)F)o3)cn2)CC1` [I.261, N-(2,2-difluoroethyl)-5-[5-(difluoromethyl)-1,3,4-oxadiazol-2-yl]-N-[1-(2-fluorophenyl)cyclopropyl]pyrimidin-2-amine], the chromatographic logP amounted to 4.4.
For the compound `FC(F)c1nnc(-c2cnc(NC3(c4ccccn4)CCCC3)nc2)o1` [I.219, 5-[5-(difluoromethyl)-1,3,4-oxadiazol-2-yl]-N-[1-(pyridin-2-yl)cyclopentyl]pyrimidin-2-amine], the chromatographic logP came out at 1.38.
Consider `CC(C)(Nc1ncc(-c2nnc(C(F)F)o2)cn1)c1ccccc1` [I.197, 5-[5-(difluoromethyl)-1,3,4-oxadiazol-2-yl]-N-(2-phenylpropan-2-yl)pyrimidin-2-amine], for which the chromatographic logP was determined as 3.08.
As to `FC(F)c1nnc(-c2cnc(NC3(c4ccccc4Br)CCCCC3)nc2)o1` [I.268, N-[1-(2-bromophenyl)cyclohexyl]-5-[5-(difluoromethyl)-1,3,4-oxadiazol-2-yl]pyrimidin-2-amine], the chromatographic logP stood at 4.38.
As to `FC(F)c1nnc(-c2cnc(NC3(c4ccc(C(F)(F)F)cc4)CCCC3)nc2)o1` [I.266, 5-[5-(difluoromethyl)-1,3,4-oxadiazol-2-yl]-N-{1-[4-(trifluoromethyl)phenyl]cyclopentyl}pyrimidin-2-amine], the chromatographic logP stood at 4.16.
The same measure, in the same setting: in the case of `CC(C)(Nc1ncc(-c2nnc(C(F)F)o2)cn1)c1cccc(C(F)(F)F)c1` [I.256, 5-[5-(difluoromethyl)-1,3,4-oxadiazol-2-yl]-N-{2-[3-(trifluoromethyl)phenyl]propan-2-yl}pyrimidin-2-amine] it was 3.63; in that of `Cc1ccnc(C2(Nc3ncc(-c4nnc(C(F)F)o4)cn3)CC2)c1` [I.203, 5-[5-(difluoromethyl)-1,3,4-oxadiazol-2-yl]-N-[1-(4-methylpyridin-2-yl)cyclopropyl]pyrimidin-2-amine], 0.93; in that of `Fc1cc(C(F)(F)F)ccc1C1(Nc2ncc(-c3nnc(C(F)F)o3)cn2)CC1` [I.263, 5-[5-(difluoromethyl)-1,3,4-oxadiazol-2-yl]-N-{1-[2-fluoro-4-(trifluoromethyl)phenyl]cyclopropyl}pyrimidin-2-amine], 3.59.
In the case of `COc1ccccc1C(C)Nc1ncc(-c2nnc(C(F)F)o2)cn1` (racemic) [I.209, 5-[5-(difluoromethyl)-1,3,4-oxadiazol-2-yl]-N-[(1RS)-1-(2-methoxyphenyl)ethyl]pyrimidin-2-amine], the chromatographic logP is 2.95.
Turning to `Cc1ccccc1C(C)(C)Nc1ncc(-c2nnc(C(F)F)o2)cn1` [I.205, 5-[5-(difluoromethyl)-1,3,4-oxadiazol-2-yl]-N-[2-(2-methylphenyl)propan-2-yl]pyrimidin-2-amine], the chromatographic logP stood at 3.28.
On the same count and under the same terms, then `FC(F)c1nnc(-c2cnc(NC3(c4cccnc4)CCCC3)nc2)o1` [I.218, 5-[5-(difluoromethyl)-1,3,4-oxadiazol-2-yl]-N-[1-(pyridin-3-yl)cyclopentyl]pyrimidin-2-amine], with 1.29; and `CC(Nc1ncc(-c2nnc(C(F)F)o2)cn1)c1cccnc1` (racemic) [I.188, 5-[5-(difluoromethyl)-1,3,4-oxadiazol-2-yl]-N-[(1RS)-1-(pyridin-3-yl)ethyl]pyrimidin-2-amine], with 0.74.

Values taken from US20220144815A1, “1,3,4-OXADIAZOLES AND THEIR DERIVATIVES AS NEW ANTIFUNGAL AGENTS” (Bayer Aktiengesellschaft, priority 2018, published 2022).
